Results taken from patent US9833497B2, “Human originated EGF domain proteins and use of the same” (CHENGDU SOURCEBIO LIMITED-LIABILITY COMPANY, priority 2013, dated 2017).

How the values were obtained:
Format in all cases: cell-based
Proteus vulgaris = test: MIC against Gram-negative bacteria: Proteus vulgaris; settings: for MIC P. vulgaris: two-fold serial dilution
Summary of the method: (§1)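 Bacteria grown in LB at 37° C to McFarland 0.5, resuspended and seeded at 5×10^5 CFU/mL in 96-well plates. Purified human EGF-domain proteins two-fold serially diluted, triplicate wells; cultured at 37° C, shaking 175 rpm. MIC = lowest protein concentration with no growth.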

Pseudomonas aeruginosa = test: MIC against Gram-negative bacteria: Pseudomonas aeruginosa; settings: for MIC P. aeruginosa: two-fold serial dilution
Summary of the method: as §1

Enterobacter cloacae = test: MIC against Gram-negative bacteria: Enterobacter cloacae; settings: for MIC E. cloacae: two-fold serial dilution
Summary of the method: as §1

Proteus mirabilis = test: MIC against Gram-negative bacteria: Proteus mirabilis; settings: for MIC P. mirabilis: two-fold serial dilution
Summary of the method: as §1

Klebsiella pneumonia = test: MIC against Gram-negative bacteria: Klebsiella pneumonia; settings: for MIC K. pneumonia: two-fold serial dilution
Summary of the method: as §1

E. coli BL21 = test: MIC against Gram-negative bacteria: E. coli BL21; settings: for MIC E. coli BL21: two-fold serial dilution
Summary of the method: as §1

Citrobacter diversus = test: MIC against Gram-negative bacteria: Citrobacter diversus; settings: for MIC C. diversus: two-fold serial dilution
Summary of the method: as §1

Aeromonas hydrophila = test: MIC against Gram-negative bacteria: Aeromonas hydrophila; settings: for MIC A. hydrophila: two-fold serial dilution
Summary of the method: as §1

Moraxella catarrhalis = test: MIC against Gram-negative bacteria: Moraxella catarrhalis; settings: for MIC M. catarrhalis: two-fold serial dilution
Summary of the method: as §1

Serratia marcescens = test: MIC against Gram-negative bacteria: Serratia marcescens; settings: for MIC S. marcescens: two-fold serial dilution
Summary of the method: as §1

E. coli DH5α = test: Antibacterial activity: MIC and growth curve against E. coli DH5α in 96-well plate; settings: minimal inhibitory concentration against E. coli DH5α; 96-well plate, 5×10^5 CFU/mL, 37° C., judged after 8 h
Summary of the method: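 MIC taken as lowest protein level with no bacterial growth, tracked by A600 every 30 min during 37 °C, 175 rpm culture. Two-fold protein series 50-12.5 μg/mL final, triplicate wells, against 5×10^5 CFU/mL of LB-washed mid-log cells.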

[1] = P. vulgaris, 10 h cultivation at 37° C., 5×10^5 CFU/mL
[2] = P. aeruginosa, 10 h cultivation at 37° C., 5×10^5 CFU/mL
[3] = E. cloacae, 10 h cultivation at 37° C., 5×10^5 CFU/mL
[4] = P. mirabilis, 10 h cultivation at 37° C., 5×10^5 CFU/mL
[5] = K. pneumonia, 10 h cultivation at 37° C., 5×10^5 CFU/mL
[6] = E. coli BL21, 10 h cultivation at 37° C., 5×10^5 CFU/mL
[7] = C. diversus, 10 h cultivation at 37° C., 5×10^5 CFU/mL
[8] = A. hydrophila, 10 h cultivation at 37° C., 5×10^5 CFU/mL
[9] = M. catarrhalis, 10 h cultivation at 37° C., 5×10^5 CFU/mL
[10] = S. marcescens, 10 h cultivation at 37° C., 5×10^5 CFU/mL
[11] = 10 h cultivation at 37° C., 5×10^5 CFU/mL

Substance	MIC (μg/mL) P. vulgaris (Proteus vulgaris; [1])	MIC (μg/mL) P. aeruginosa (Pseudomonas aeruginosa; [2])	MIC (μg/mL) E. cloacae (Enterobacter cloacae; [3])	MIC (μg/mL) P. mirabilis (Proteus mirabilis; [4])	MIC (μg/mL) K. pneumonia (Klebsiella pneumonia; [5])	MIC (μg/mL) E. coli BL21 (E. coli BL21; [6])	MIC (μg/mL) C. diversus (Citrobacter diversus; [7])	MIC (μg/mL) A. hydrophila (Aeromonas hydrophila; [8])	MIC (μg/mL) M. catarrhalis (Moraxella catarrhalis; [9])	MIC (μg/mL) S. marcescens (Serratia marcescens; [10])	MIC (E. coli DH5α)	MIC P. vulgaris (Proteus vulgaris; [11])	MIC P. aeruginosa (Pseudomonas aeruginosa; [11])	MIC E. cloacae (Enterobacter cloacae; [11])	MIC P. mirabilis (Proteus mirabilis; [11])	MIC K. pneumonia (Klebsiella pneumonia; [11])	MIC E. coli BL21 (E. coli BL21; [11])	MIC C. diversus (Citrobacter diversus; [11])	MIC A. hydrophila (Aeromonas hydrophila; [11])	MIC M. catarrhalis (Moraxella catarrhalis; [11])	also measured
PRT850 (CQCHGHVDPVKTPKICKPESGECINCLHNTTGFWCENCLEGYVHDLEGNCIK; listed as Homo sapiens)	25 µg/mL	12.5 µg/mL	12.5 µg/mL	12.5 µg/mL	50 µg/mL	25 µg/mL	12.5 µg/mL	50 µg/mL	50 µg/mL	50 µg/mL	50 µg/mL										
PRT800 (GRVCQCQNGASCDHISGKCTCRTGFTGQHCE; listed as Homo sapiens)	50 µg/mL	25 µg/mL	50 µg/mL	12.5 µg/mL	12.5 µg/mL	50 µg/mL	50 µg/mL	12.5 µg/mL	12.5 µg/mL	25 µg/mL	25 µg/mL										
PRT900 (VLAPCAPSPCRNGGECRQSEDYESFSCVCPTGWQGQTCE; listed as Homo sapiens)											12.5 µg/mL										MIC (Proteus vulgaris; P. vulgaris, 10 h cultivation at 37° C.): 25 µg/mL; MIC (Pseudomonas aeruginosa; P. aeruginosa, 10 h cultivation at 37° C.): 12.5 µg/mL; MIC (Enterobacter cloacae; E. cloacae, 10 h cultivation at 37° C.): 12.5 µg/mL; MIC (Proteus mirabilis; P. mirabilis, 10 h cultivation at 37° C.): 12.5 µg/mL; MIC (Klebsiella pneumonia; K. pneumonia, 10 h cultivation at 37° C.): 12.5 µg/mL; MIC (E. coli BL21; E. coli BL21, 10 h cultivation at 37° C.): 25 µg/mL; MIC (Citrobacter diversus; C. diversus, 10 h cultivation at 37° C.): 12.5 µg/mL; MIC (Aeromonas hydrophila; A. hydrophila, 10 h cultivation at 37° C.): 12.5 µg/mL; MIC (Moraxella catarrhalis; M. catarrhalis, 10 h cultivation at 37° C.): 25 µg/mL; MIC (Serratia marcescens; S. marcescens, 10 h cultivation at 37° C.): 50 µg/mL
PRT1294 (DFDDCQDNKCKNGAHCTDAVNGYTCICPEGYSGLFCE; listed as Homo sapiens)											50 µg/mL										MIC against P. vulgaris (Proteus vulgaris; Proteus vulgaris, 96-well plate, 5×10^5 CFU/mL, 37° C., 10 h): 12.5 µg/mL; MIC against P. aeruginosa (Pseudomonas aeruginosa; Pseudomonas aeruginosa, 96-well plate, 5×10^5 CFU/mL, 37° C., 10 h): 50 µg/mL; MIC against E. cloacae (Enterobacter cloacae; Enterobacter cloacae, 96-well plate, 5×10^5 CFU/mL, 37° C., 10 h): 50 µg/mL; MIC against P. mirabilis (Proteus mirabilis; Proteus mirabilis, 96-well plate, 5×10^5 CFU/mL, 37° C., 10 h): 50 µg/mL; MIC against K. pneumonia (Klebsiella pneumonia; Klebsiella pneumonia, 96-well plate, 5×10^5 CFU/mL, 37° C., 10 h): 12.5 µg/mL; MIC against E. coli BL21 (E. coli BL21; E. coli BL21, 96-well plate, 5×10^5 CFU/mL, 37° C., 10 h): 12.5 µg/mL; MIC against C. diversus (Citrobacter diversus; Citrobacter diversus, 96-well plate, 5×10^5 CFU/mL, 37° C., 10 h): 50 µg/mL; MIC against A. hydrophila (Aeromonas hydrophila; Aeromonas hydrophila, 96-well plate, 5×10^5 CFU/mL, 37° C., 10 h): 12.5 µg/mL; MIC against M. catarrhalis (Moraxella catarrhalis; Moraxella catarrhalis, 96-well plate, 5×10^5 CFU/mL, 37° C., 10 h): 12.5 µg/mL; MIC against S. marcescens (Serratia marcescens; Serratia marcescens, 96-well plate, 5×10^5 CFU/mL, 37° C., 10 h): 50 µg/mL
PRT1088 (PVNPCCYYPCQHQGICVRFGLDRYQCDCTRTGYSGPNCT; listed as Homo sapiens)											25 µg/mL	25 µg/mL	50 µg/mL	50 µg/mL	12.5 µg/mL	12.5 µg/mL	50 µg/mL	50 µg/mL	50 µg/mL	25 µg/mL	MIC S. marcescens (Serratia marcescens; [11]): 50 µg/mL
PRT1092 (ILLGCTHQQCLNNGTCIPHFQDGQHGFSCLCPSGYTGSLCE; listed as Homo sapiens)											25 µg/mL	25 µg/mL	25 µg/mL	25 µg/mL	50 µg/mL	12.5 µg/mL	50 µg/mL	12.5 µg/mL	12.5 µg/mL	25 µg/mL	MIC S. marcescens (Serratia marcescens; [11]): 25 µg/mL
